Laboratory results reported in patent US5955423A (priority 1995, dated 1999).
Where “and” joins values, the source holds several entries; their conditions need not be identical. Equal values may be shown once. Read-outs that look alike come from different tables or passages of the source.

Columns and labels:
[1] = system: SKOV3 (human ovarian carcinoma) cell line; experiment: Cytotoxicity against SKOV3 cell line; conditions: Table 2
[2] = system: LoVo (human colon-carcinoma) cell line; experiment: Cytotoxicity against LoVo cell line; type: cell-based
[3] = system: KB (human nasopharyngeal carcinoma) cell line; experiment: Cytotoxicity against KB cell line; type: cell-based
[4] = system: Panc 03 (pancreatic ductal adenocarcinoma #03, P03); conditions: SC P03
Procedure: (§1) Gross log kill is defined as T-C/3.2 Td where T is the median time in days for the tumors of the treated group to reach 750 mg, C is the median time in days for the tumors of the control group to reach 750 mg, and Td is the tumor volume doubling time.

[5] = system: murine leukemia (L1210 or P388), murine solid tumor, human solid tumor and low malignancy fibroblast (LML) cells; conditions: for Differential in Zone Units, Corbett Assay: μg/disk as for E3; for Type of Cytotoxicity, Corbett Assay: μg/disk: 1 12.5, 2 25, 3 25, 4 20, 5 2.9, 6 250, 8 30, 5-FU 2.5, VP-16 5, taxol 0.2, ^c selective against drug-sensitive and drug-resistant cell lines, ^d drug-sensitive cell lines only
[6] = system: murine and human tumors implanted in mice
Procedure: as §1

[7] = system: Colon 38 (colon adenocarcinoma #38); conditions: SC C38
Procedure: as §1

[8] = system: Mam 16/C (mammary #16/C); experiment: In vivo activity, SC Mam 16/C tumor; conditions: Exp # 1885, 7 inj. IV, 21.3 mg/kg TD
Procedure: as §1

[9] = system: Colon 51 (colon adenocarcinoma #51); experiment: In vivo activity, SC Colon 51 tumor; conditions: Exp # 1900, 9 inj. IV, 67.5 mg/kg TD
Procedure: as §1

[10] = Exp # 1843, 4 inj. IV, 28/5 mg/kg TD
[11] = Exp # 1825, 11 inj. IV, 106 mg/kg TD
[12] = Exp # 1769, 15 inj. IV, 45 mg/kg TD
[13] = Exp # 1887B, 6 inj. IV, 30 mg/kg TD
[14] = Exp # 1843, 7 inj. IV, 23 mg/kg TD
[15] = Exp # 1878, 9 inj. IV, 82 mg/kg TD
[16] = Exp # 1813, 9 inj. IV, 27 mg/kg TD

## CCC(C)C1OC(=O)C(C)CNC(=O)C(Cc2ccc(OC)c(Cl)c2)NC(=O)C=CCC(C(C)C=Cc2ccccc2)OC1=O (stereo not shown) [Cryptophycin 18]
[1]
  SKOV3 IC50: 23 ng/mL
[2]; Table 2
  LoVo IC50: 4.5 ng/mL

## COc1ccc(CC2NC(=O)C=CCC(C(C)C=Cc3ccccc3)OC(=O)C(C(C)C)OC(=O)C(C)CNC2=O)cc1Cl (stereo not shown) [Cryptophycin 19]
[3]; Table 2
  KB IC50: 9.8 ng/mL
[1]
  SKOV3 IC50: 41 ng/mL

## COc1ccc(CC(NC(=O)C=CCC2OC(c3ccccc3)C(O)C2C)C(=O)O)cc1Cl (stereo not shown) [Cryptophycin 7]
[3]; Table 1
  KB IC50: ≥ 750 ng/mL
[2]; Table 1
  LoVo IC50: ≥ 480 ng/mL

## COc1ccc(C[C@H]2NC(=O)/C=C/C[C@@H]([C@H](C)/C=C/c3ccccc3)OC(=O)[C@H](CC(C)C)OC(=O)[C@H](C)CNC2=O)cc1Cl [Cryptophycin 3]
[4]; [10]
  % Body Wt. Loss at Nadir: -9%
  Cures: 0/5
  Log Kill: < 1
  T/C: 54%
[3]; Table 1
  KB IC50: 0.3 ng/mL
[5]
  Differential in Zone Units, Corbett Assay: > 400 Zone Units
  Type of Cytotoxicity, Corbett Assay: E/T
[1]
  SKOV3 IC50: 2.8 ng/mL
[2]; Table 1
  LoVo IC50: 0.5 ng/mL
[2]; Table 2
  LoVo IC50: 0.6 ng/mL

## COc1ccc(C[C@H]2NC(=O)/C=C/C[C@@H]([C@H](C)[C@@H](O)[C@@H](Cl)c3ccccc3)OC(=O)[C@H](CC(C)C)OC(=O)[C@H](C)CNC2=O)cc1Cl [Cryptophycin 8]
[4]; [11]
  % Body Wt. Loss at Nadir: -6%
  Cures: 0/5
  Log Kill: 4.6
  T/C: 4%
[3]; Table 1
  KB IC50: 0.0002 ng/mL
[3]; Table 2
  KB IC50: 0.01 ng/mL
[6]; all of the tumors tested to date
  tumor burden T/C: < 10%
[6]; in vivo testing
  lethal toxicity observed during testing: attributed to leucopenia
[6]; tumors implanted in mice
  gross log kill activity ratings: +++ to ++++
[7]; [12]
  % Body Wt. Loss at Nadir: -2%
  Cures: 0/5
[7]; [13]
  Cures: 1/5
  Log Kill: 2.8
  T/C: 0%
[5]
  Differential in Zone Units, Corbett Assay: > 500 Zone Units
  Type of Cytotoxicity, Corbett Assay: E/T
[1]
  SKOV3 IC50: 0.15 ng/mL
[8]
  % Body Wt. Loss at Nadir: -4.5%
  Cures: 0/5
  Log Kill: 2.5
  T/C: 6%
[2]; Table 1
  LoVo IC50: 0.01 ng/mL
[2]; Table 2
  LoVo IC50: 0.0022 ng/mL
[9]
  % Body Wt. Loss at Nadir: -1%
  Log Kill: 1.8
  T/C: 7%

## COc1ccc(CC2NC(=O)CCCC(C(C)C3OC3c3ccccc3)OC(=O)C(CC(C)C)OC(=O)C(C)CNC2=O)cc1Cl (stereo not shown) [Cryptophycin 35]
[4]; [14]
  % Body Wt. Loss at Nadir: -2%
  Cures: 0/5
  Log Kill: 1.3
  T/C: 11%
[3]; Table 2
  KB IC50: 0.055 ng/mL
[6]; the one trial that has been run to date
  in vivo activity: Good in vivo activity
[1]
  SKOV3 IC50: 0.092 ng/mL

## COc1ccc(C[C@H]2NC(=O)/C=C/C[C@@H]([C@H](C)/C=C/c3ccccc3)OC(=O)[C@H](CC(C)C)OC(=O)[C@H](C)CNC2=O)cc1 [Cryptophycin 4]
[5]
  Differential in Zone Units, Corbett Assay: > 400 Zone Units
  Type of Cytotoxicity, Corbett Assay: E/T
[1]
  SKOV3 IC50: 21 ng/mL
[2]; Table 2
  LoVo IC50: 2.5 ng/mL

## COc1ccc(CC2NC(=O)C=CCC(C(C)C(O)C(OC)c3ccccc3)OC(=O)C(CC(C)C)OC(=O)C(C)CNC2=O)cc1Cl (stereo not shown) [Cryptophycin 9]
[3]; Table 1
  KB IC50: 15 ng/mL

## COc1ccc(CC(NC(=O)C=CCC(O)C(C)C=Cc2ccccc2)C(=O)NCC(C)C(=O)O)cc1Cl (stereo not shown) [Cryptophycin 14]
[3]; Table 1
  KB IC50: 1.8 ng/mL

## COc1ccc(C[C@H]2NC(=O)/C=C/C[C@@H](C/C=C/c3ccccc3)OC(=O)[C@H](CC(C)C)OC(=O)[C@H](C)CNC2=O)cc1Cl [Cryptophycin 28]
[3]; Table 2
  KB IC50: 1.5 ng/mL
[1]
  SKOV3 IC50: 6.1 ng/mL
[2]; Table 2
  LoVo IC50: 0.75 ng/mL

## COc1ccc(C[C@H]2NC(=O)/C=C/C[C@@H]([C@H](C)[C@H]3O[C@@H]3c3ccccc3)OC(=O)[C@H](CC(C)C)OC(=O)CCNC2=O)cc1 [Cryptophycin 24]
[3]; Table 2
  KB IC50: 0.12 ng/mL
[1]
  SKOV3 IC50: 0.3 ng/mL
[2]; Table 2
  LoVo IC50: 0.095 ng/mL

## CC[C@H](C)[C@@H]1OC(=O)[C@H](C)CNC(=O)[C@@H](Cc2ccc(OC)c(Cl)c2)NC(=O)/C=C/C[C@@H]([C@H](C)[C@H]2O[C@@H]2c2ccccc2)OC1=O [Cryptophycin 54]
[3]; Table 2
  KB IC50: 0.80 ng/mL
[1]
  SKOV3 IC50: 2.2 ng/mL
[2]; Table 2
  LoVo IC50: 2.2 ng/mL

## COc1ccc(C[C@H]2NC(=O)CC(C[C@H](O)[C@H](C)/C=C/c3ccccc3)OC(=O)[C@H](CC(C)C)OC(=O)[C@H](C)CNC2=O)cc1Cl (stereo partly shown) [Cryptophycin 26]
[3]; Table 2
  KB IC50: 19 ng/mL
[1]
  SKOV3 IC50: 95 ng/mL
[2]; Table 2
  LoVo IC50: 9.8 ng/mL

## CCC[C@@H]1OC(=O)[C@H](C)CNC(=O)[C@@H](Cc2ccc(OC)c(Cl)c2)NC(=O)/C=C/C[C@@H]([C@H](C)[C@H]2O[C@@H]2c2ccccc2)OC1=O [Cryptophycin 50]
[1]
  SKOV3 IC50: 0.2 ng/mL

## COc1c(Cl)cc(CC2NC(=O)C=CCC(C(C)C3OC3c3ccccc3)OC(=O)C(CC(C)C)OC(=O)C(C)CNC2=O)cc1Cl (stereo not shown) [Cryptophycin 31]
[3]; Table 2
  KB IC50: 0.53 ng/mL
[1]
  SKOV3 IC50: 1.9 ng/mL
[2]; Table 2
  LoVo IC50: 0.062 ng/mL

## COC(=O)[C@H](C)CNC(=O)[C@@H](Cc1ccc(OC)c(Cl)c1)NC(=O)/C=C/C[C@@H]1O[C@@H](c2ccccc2)[C@H](O)[C@H]1C [Cryptophycin 6]
[3]; Table 1
  KB IC50: ≥ 100 ng/mL
[2]; Table 1
  LoVo IC50: ≥ 100 ng/mL

## CC(C)CC1OC(=O)C(C)CNC(=O)C(Cc2ccc(O)c(Cl)c2)NC(=O)C=CCC(C(C)C=Cc2ccccc2)OC1=O (stereo not shown) [Cryptophycin 17]
[3]; Table 2
  KB IC50: 4.7 ng/mL
[1]
  SKOV3 IC50: 11 ng/mL
[2]; Table 2
  LoVo IC50: 5.9 ng/mL

## COc1ccc(C[C@H]2NC(=O)/C=C/C[C@@H]([C@H](C)/C=C/c3ccccc3)OC(=O)[C@H](CC(C)C)OC(=O)CCNC2=O)cc1Cl [Cryptophycin 29]
[1]
  SKOV3 IC50: 3.4 ng/mL
[2]; Table 2
  LoVo IC50: 0.49 ng/mL

## CC(C)C[C@@H]1OC(=O)[C@H](C)CNC(=O)[C@@H](Cc2ccc(O)c(Cl)c2)NC(=O)/C=C/C[C@@H]([C@H](C)[C@H]2O[C@@H]2c2ccccc2)OC1=O [Cryptophycin 16]
[4]; [15]
  % Body Wt. Loss at Nadir: -1%
  Cures: 0/5
  Log Kill: None
  T/C: 89%
[3]; Table 2
  KB IC50: 0.08 ng/mL
[1]
  SKOV3 IC50: 0.64 ng/mL

## COc1ccc(C[C@@H](NC(=O)/C=C/C[C@@H]2O[C@@H](c3ccccc3)[C@H](O)[C@H]2C)C(=O)NC[C@@H](C)C(=O)O)cc1Cl [Cryptophycin 12]
[3]; Table 1
  KB IC50: ≥ 100 ng/mL
[3]; Table 2
  KB IC50: 18 ng/mL

## COc1ccc(CC2NC(=O)C=CCC(CC3OC3c3ccccc3)OC(=O)C(CC(C)C)OC(=O)C(C)CNC2=O)cc1Cl (stereo not shown) [Cryptophycin 40]
[3]; Table 2
  KB IC50: 9.0 ng/mL
[2]; Table 2
  LoVo IC50: 1.0 ng/mL

## COc1ccc(C[C@H]2NC(=O)/C=C/C[C@@H]([C@H](C)[C@H]3O[C@@H]3c3ccccc3)OC(=O)[C@H](CC(C)C)OC(=O)[C@H](C)CNC2=O)cc1 [Cryptophycin 2]
[5]
  Differential in Zone Units, Corbett Assay: > 400 Zone Units
  Type of Cytotoxicity, Corbett Assay: E/T
[1]
  SKOV3 IC50: 0.18 ng/mL
[2]; Table 1
  LoVo IC50: 0.0002 ng/mL
[2]; Table 2
  LoVo IC50: 0.021 ng/mL

## COc1ccc(C[C@H]2NC(=O)/C=C/C[C@@H]([C@H](C)[C@H]3O[C@@H]3c3ccccc3)OC(=O)[C@H](CC(C)C)OC(=O)CCNC2=O)cc1Cl [Cryptophycin 21]
[4]; [16]
  % Body Wt. Loss at Nadir: -11%
  Cures: 0/5
  Log Kill: None
  T/C: 61%
  dead: 1/5
[1]
  SKOV3 IC50: 0.029 ng/mL
[2]; Table 2
  LoVo IC50: 0.0003 ng/mL

## CCCC1OC(=O)C(C)CNC(=O)C(Cc2ccc(OC)c(Cl)c2)NC(=O)C=CCC(C(C)C=Cc2ccccc2)OC1=O (stereo not shown) [Cryptophycin 49]
[1]
  SKOV3 IC50: 1.1 ng/mL

## COc1ccc(C[C@@H](NC(=O)/C=C/C[C@H](O)[C@H](C)[C@@H](O)[C@@H](OC)c2ccccc2)C(=O)NC[C@@H](C)C(=O)O)cc1Cl [Cryptophycin 10]
[3]; Table 1
  KB IC50: ≥ 100 ng/mL
[2]; Table 1
  LoVo IC50: ≥ 100 ng/mL

## COc1cc([C@@H]2c3cc4c(cc3[C@@H](O[C@@H]3O[C@@H]5CO[C@@H](C)O[C@H]5[C@H](O)[C@H]3O)[C@H]3COC(=O)[C@H]23)OCO4)cc(OC)c1O [VP-16, etoposide, reference compound]
[5]
  Differential in Zone Units, Corbett Assay: 350 Zone Units and 530 Zone Units

## COc1ccc(C[C@H]2NC(=O)C[C@H](O)C[C@@H]([C@H](C)/C=C/c3ccccc3)OC(=O)[C@H](CC(C)C)OC(=O)[C@H](C)CNC2=O)cc1Cl [Cryptophycin 30]
[3]; Table 2
  KB IC50: 11 ng/mL

## COc1ccc(C[C@H]2NC(=O)/C=C/C[C@@H]([C@H](C)[C@@H](O)[C@@H](O)c3ccccc3)OC(=O)[C@H](CC(C)C)OC(=O)[C@H](C)CNC2=O)cc1Cl [Cryptophycin 15]
[1]
  SKOV3 IC50: 12 ng/mL
